For six compounds, melting point results are on record in patent US7312360B2, “Substituted hydroxyethylamines” (Elan Pharmaceuticals, Inc., priority 2001, dated 2007).

`CCCCOc1cccc(C[C@H](N)[C@H](O)CNCc2cccc(CC)c2)c1.Cl.Cl` came in with a melting point of 197 to 199 °C.
On to `CCCCCCOc1cccc(C[C@H](NC(=O)c2coc(NS(C)(=O)=O)n2)[C@H](O)CNCc2cccc(CC)c2)c1` [Example 45, N-{(1S,2R)-3-[(3-ethylbenzyl)amino]-1-[3-(hexyloxy)benzyl]-2-hydroxypropyl}-2-[(methylsulfonyl)amino]-1,3-oxazole-4-carboxamide], for which the melting point was in the range of 85 to 90 °C.
In the case of `CCCCOc1cccc(C[C@H](NC(=O)c2coc(NS(C)(=O)=O)n2)[C@H](O)CNCc2cccc(CC)c2)c1` [Example 50a, N-{(1S,2R)-1-(3-butoxybenzyl)-3-[(3-ethylbenzyl)amino]-2-hydroxypropyl}-2-[(methylsulfonyl)amino]-1,3-oxazole-4-carboxamide] it was 78 to 80 °C; in that of `CCCCOc1cccc(C[C@H](NC(C)=O)[C@H](O)CNCc2cccc(CC)c2)c1` [Example 50b, N-{(1S,2R)-1-(3-butoxybenzyl)-3-[(3-ethylbenzyl)amino]-2-hydroxypropyl}acetamide], 112 to 114 °C.
As for `CCCCCCOc1cccc(C[C@H](NC(=O)c2cccc(-c3ncco3)c2)[C@H](O)CNCc2cccc(CC)c2)c1` [Example 93A, N-{(1S,2R)-3-[(3-ethylbenzyl)amino]-1-[3-(hexyloxy)benzyl]-2-hydroxypropyl}-3-(1,3-oxazol-2-yl)benzamide], the melting point lay in the range of 117 to 120 °C.
As for `CCCCCCOc1cccc(C[C@H](NC(C)=O)[C@H](O)CNCc2cccc(CC)c2)c1` [Example 93B, N-{(1S,2R)-3-[(3-ethylbenzyl)amino]-1-[3-(hexyloxy)benzyl]-2-hydroxypropyl}acetamide], the melting point was 102 to 105 °C.
